Patent publication US3966951A, “Esters of quinoxaline-1,4-dioxides” (Pfizer Inc., priority 1975, dated 1976)
Converted amounts (≈) assume the structure as drawn.

Columns and labels:
[1] = system: Past. multi. 59A006; assay: acute systemic infection in mice, PD50; format: in vivo; conditions: Mus musculus, 0.5, 4 and 24 h after inoculation, ± is 95% confidence
Protocol: (§1) Acute systemic infections in mice have been used to evaluate the in vivo therapeutic activity of Compound 10. These infections are produced by the intraperitoneal injection of standard cultures suspended in hog gastric mucin. Treatment was initiated 0.5 hours after inoculation with the infecting organism and two subsequent doses administered at 4 and 24 hours after inoculation. Efficacy was measured in PD50 values, the dose of the drug in mg/kg required to protect 50% of the treated mice against otherwise lethal infections. These values were calculated based on the number of mice surviving a 4 day post-treatment holding period. The drugs were administered both orally (po) and subcutaneously (sc). The range quoted indicates the 95% confidence level for the PD50.

[2] = system: Sal. cholsu. 58B242; assay: acute systemic infection in mice, PD50; format: in vivo; conditions: Mus musculus, 0.5, 4 and 24 h after inoculation, ± is 95% confidence
Protocol: as §1

[3] = system: E. Coli 51A266; assay: acute systemic infection in mice, PD50; format: in vivo; conditions: Escherichia coli, 0.5, 4 and 24 h after inoculation, ± is 95% confidence
Protocol: as §1

[4] = system: Strep. equi 021001; assay: in vitro MIC, Inocula Replicating Device, anaerobic Gas Pac, BHI agar; format: cell-based; conditions: unit assumed
[5] = system: Sal. typhim 58D011; assay: as above; format: cell-based; conditions: unit assumed
[6] = system: Strep. zoo 02-H001; assay: as above; format: cell-based; conditions: unit assumed
[7] = feed efficiency of swine; format: in vivo; conditions: 50 ppm in feed
[8] = system: Past. mult 59A006; assay: in vitro MIC, Inocula Replicating Device, anaerobic Gas Pac, BHI agar; format: cell-based; conditions: unit assumed
[9] = system: swine dysentery; assay: prophylaxis of induced swine dysentery; format: in vivo; conditions: 25 ppm or 50 ppm in feed
Source text: (§2) In the prophylaxis of two induced diseases, swine dysentery and salmonellosis, excellent results have been obtained. […] In the salmonellosis model, 20 percent of the nonmedicated animals died and 50 percent of the survivors were unthrifty.

[10] = system: Aer. hydro 72B001; assay: in vitro MIC, Inocula Replicating Device, anaerobic Gas Pac, BHI agar; format: cell-based; conditions: unit assumed
[11] = system: E. Coli 51A-266; assay: as above; format: cell-based; conditions: unit assumed
[12] = system: E. Coli 51A-218; assay: as above; format: cell-based; conditions: unit assumed
[13] = tolerance in chicks; format: in vivo; conditions: 250 ppm
[14] = system: salmonellosis; assay: prophylaxis of induced salmonellosis; format: in vivo, swine; conditions: 50 ppm in feed
Source text: as §2

[15] = system: Treponema hyodysenteriae; assay: MIC against Treponema hyodysenteriae on bovine blood/tryptose agar; format: cell-based; conditions: about 5% bovine blood, about 3% tryptose agar, unit assumed
Protocol: MIC's against Treponema hyodysenteriae were determined by spreading appropriate dilutions of the microorganism on a growth medium containing about 5% bovine blood and about 3% tryptose agar.

[16] = system: Strep. pyogen 02C203; assay: in vitro MIC, Inocula Replicating Device, anaerobic Gas Pac, BHI agar; format: cell-based; conditions: unit assumed
[17] = system: Past. mult 59A004; assay: as above; format: cell-based; conditions: unit assumed
[18] = system: Sal. dublin 58U001; assay: as above; format: cell-based; conditions: unit assumed
[19] = tolerance and pathological examination in swine; format: in vivo
[20] = system: Sal. cholsu 58B242; assay: in vitro MIC, Inocula Replicating Device, anaerobic Gas Pac, BHI agar; format: cell-based; conditions: unit assumed
[21] = system: Staph. aureus 01A005; assay: as above; format: cell-based; conditions: unit assumed
[22] = system: Staph. aureus 01A106; assay: as above; format: cell-based; conditions: unit assumed

CC(=O)c1c(COC(=O)CCc2ccc(O)cc2)[n+]([O-])c2ccccc2[n+]1[O-] [Compound 10, 2-acetyl-3-Hydroxymethyl-Quinoxaline-1,4-Dioxide-p-Hydroxyphenylpropionic Acid Ester]
ED50 ([1]; po): 13 ± 1.6 mg/kg | ED50 ([1]; sc): 13 ± 1.6 mg/kg | ED50 ([2]; po): 8.4 ± 3.2 mg/kg | ED50 ([2]; sc): 6.9 ± 3.1 mg/kg | ED50 ([3]; po): 7.6 ± 4.7 mg/kg | ED50 ([3]; sc): 13.3 ± 8.6 mg/kg | Primary in vitro Activity (MIC) [4]: < 0.39 µg/mL | Primary in vitro Activity (MIC) [5]: 12.5 µg/mL | Primary in vitro Activity (MIC) [6]: < 0.39 µg/mL | increase in feed efficiency of swine [7]: 3% | Primary in vitro Activity (MIC) [8]: 12.5 µg/mL | morbidity in dysentery model ([9]; nonmedicated: 100 percent): no deaths or morbidity | mortality in dysentery model ([9]; nonmedicated: average 36 percent): no deaths | Primary in vitro Activity (MIC) [10]: 1.56 µg/mL | Primary in vitro Activity (MIC) [11]: 25 µg/mL | Primary in vitro Activity (MIC) [12]: 6.25 µg/mL | tolerance in chicks [13]: extremely well tolerated | mortality in salmonellosis model ([14]; nonmedicated: 20 percent died): none of the animals on a feed containing 50 ppm of Compound 10 died | animals judged unthrifty in salmonellosis model ([14]; nonmedicated: 50 percent of survivors): 30% | MIC [15]: 0.19 µg/mL (≈ 0.497 µM) | Primary in vitro Activity (MIC) [16]: < 0.39 µg/mL | Primary in vitro Activity (MIC) [17]: 25 µg/mL | Primary in vitro Activity (MIC) [18]: 50 µg/mL | tolerance in swine ([19]; 150 ppm): The same results are observed in swine | adverse effects on pathological examination ([19]; swine, 50 ppm in feed): no adverse effects | Primary in vitro Activity (MIC) [20]: 50 µg/mL | Primary in vitro Activity (MIC) [21]: < 0.39 µg/mL | Primary in vitro Activity (MIC) [22]: < 0.39 µg/mL
